{"source": "patent US11834434B2", "about": "“Substituted 2-heteroaryloxypyridines and salts thereof and their use as herbicidal agents” (Bayer Aktiengesellschaft, priority 2018, dated 2023)", "format_in_all_cases": "in vivo", "key": {"[1]": {"test_system": "Amaranthus retroflexus (AMARE)", "assay": "Post-emergence herbicidal action against Amaranthus retroflexus", "conditions": "1280 g/ha; rated visually after about 3 weeks vs untreated controls; 100% = plants have died, 0% = like control plants", "description": "(§1) Seeds of mono- and dicotyledonous weed plants were placed in plastic pots in sandy loam soil (doubly sown with in each case one species of mono- or dicotyledonous weed plants per pot), covered with soil and cultivated in a greenhouse under controlled growth conditions. 2 to 3 weeks after sowing, the test plants were treated at the one-leaf stage. The compounds of the invention, formulated in the form of wettable powders (WP) or as emulsion concentrates (EC), were applied onto the green parts of the plants as aqueous suspension or emulsion with addition of 0.5% additive at a water application rate of 600 liters per hectare (converted). After the test plants had been kept in the greenhouse under optimum growth conditions for about 3 weeks, the activity of the preparations was rated visually in comparison to untreated controls. For example, 100% activity=the plants have died, 0% activity=like control plants. Tables B1 to B8 below show the effects of selected compounds of the general formula (I) according to Table 1 on various harmful plants and an application rate corresponding to 1280 g/ha, which were obtained by the experimental procedure mentioned above."}, "Setaria viridis (SETVI)": {"test_system": "Setaria viridis (SETVI)", "assay": "Pre-emergence herbicidal action against Setaria viridis", "conditions": "1280 g/ha; scored visually after about 3 weeks vs untreated controls; 100% = plants have died, 0% = like control plants", "text": "(§2) Seeds of mono- and dicotyledonous weed plants were placed in plastic pots in sandy loam soil (doubly sown with in each case one species of mono- or dicotyledonous weed plants per pot) and covered with soil. The compounds of the invention, formulated in the form of wettable powders (WP) or as emulsion concentrates (EC), were then applied onto the surface of the covering soil as aqueous suspension or emulsion with addition of 0.5% additive at a water application rate of 600 liters per hectare (converted). After the treatment, the pots were placed in a greenhouse and kept under good growth conditions for the test plants. After about 3 weeks, the effect of the preparations was scored visually in comparison with untreated controls as percentages. For example, 100% activity=the plants have died, 0% activity=like control plants. Tables C1 to C8 below show the effects of selected compounds of the general formula (I) according to Table 1 on various harmful plants and an application rate corresponding to 1280 g/ha, which were obtained by the experimental procedure mentioned above."}, "[2]": {"test_system": "Amaranthus retroflexus (AMARE)", "assay": "Pre-emergence herbicidal action against Amaranthus retroflexus", "conditions": "1280 g/ha; scored visually after about 3 weeks vs untreated controls; 100% = plants have died, 0% = like control plants", "text": "as §2"}, "Poa annua (POAAN)": {"test_system": "Poa annua (POAAN)", "assay": "Pre-emergence herbicidal action against Poa annua", "conditions": "1280 g/ha; scored visually after about 3 weeks vs untreated controls; 100% = plants have died, 0% = like control plants", "text": "as §2"}, "[3]": {"test_system": "Matricaria inodora (MATIN)", "assay": "Pre-emergence herbicidal action against Matricaria inodora", "conditions": "1280 g/ha; scored visually after about 3 weeks vs untreated controls; 100% = plants have died, 0% = like control plants", "text": "as §2"}, "Stellaria media (STEME) [4]": {"test_system": "Stellaria media (STEME)", "assay": "Pre-emergence herbicidal action against Stellaria media", "conditions": "1280 g/ha; scored visually after about 3 weeks vs untreated controls; 100% = plants have died, 0% = like control plants", "text": "as §2"}, "[5]": {"test_system": "Abutilon theophrasti (ABUTH)", "assay": "Pre-emergence herbicidal action against Abutilon theophrasti", "conditions": "1280 g/ha; scored visually after about 3 weeks vs untreated controls; 100% = plants have died, 0% = like control plants", "text": "as §2"}, "Stellaria media (STEME) [6]": {"test_system": "Stellaria media (STEME)", "assay": "Post-emergence herbicidal action against Stellaria media", "conditions": "1280 g/ha; rated visually after about 3 weeks vs untreated controls; 100% = plants have died, 0% = like control plants", "description": "as §1"}, "Lolium rigidum (LOLRI)": {"test_system": "Lolium rigidum (LOLRI)", "assay": "Pre-emergence herbicidal action against Lolium rigidum", "conditions": "1280 g/ha; scored visually after about 3 weeks vs untreated controls; 100% = plants have died, 0% = like control plants", "text": "as §2"}, "[7]": {"test_system": "Echinochloa crus-galli (ECHCG)", "assay": "Pre-emergence herbicidal action against Echinochloa crus-galli", "conditions": "1280 g/ha; scored visually after about 3 weeks vs untreated controls; 100% = plants have died, 0% = like control plants", "text": "as §2"}}}
{"smiles": "Fc1ccc(Sc2cccnc2Oc2ncc(F)cn2)cc1", "note": "[Example I-154]", "values": [{"measurement": "Post-emergence action against Amaranthus retroflexus (AMARE)", "setting": "[1]", "value": 100, "unit": "%"}, {"measurement": "Pre-emergence action against Setaria viridis (SETVI)", "setting": "Setaria viridis (SETVI)", "value": 100, "unit": "%"}, {"measurement": "Pre-emergence action against Amaranthus retroflexus (AMARE)", "setting": "[2]", "value": 100, "unit": "%"}, {"measurement": "Pre-emergence action against Poa annua (POAAN)", "setting": "Poa annua (POAAN)", "value": 100, "unit": "%"}, {"measurement": "Pre-emergence action against Matricaria inodora (MATIN)", "setting": "[3]", "value": 100, "unit": "%"}, {"measurement": "Pre-emergence action against Stellaria media (STEME)", "setting": "Stellaria media (STEME) [4]", "value": 100, "unit": "%"}]}
{"smiles": "Cc1ccc(Cc2ccc(F)cc2F)c(Oc2ncc(Cl)cn2)n1", "note": "[Example I-400]", "values": [{"measurement": "Pre-emergence action against Setaria viridis (SETVI)", "setting": "Setaria viridis (SETVI)", "value": 100, "unit": "%"}, {"measurement": "Pre-emergence action against Amaranthus retroflexus (AMARE)", "setting": "[2]", "value": 90, "unit": "%"}, {"measurement": "Pre-emergence action against Poa annua (POAAN)", "setting": "Poa annua (POAAN)", "value": 100, "unit": "%"}, {"measurement": "Pre-emergence action against Matricaria inodora (MATIN)", "setting": "[3]", "value": 90, "unit": "%"}, {"measurement": "Pre-emergence action against Stellaria media (STEME)", "setting": "Stellaria media (STEME) [4]", "value": 100, "unit": "%"}]}
{"smiles": "Cc1ccc(Cc2ccc(C)nc2Oc2ncc(Cl)cn2)cc1", "note": "[Example I-405]", "values": [{"measurement": "Pre-emergence action against Setaria viridis (SETVI)", "setting": "Setaria viridis (SETVI)", "value": 100, "unit": "%"}, {"measurement": "Pre-emergence action against Amaranthus retroflexus (AMARE)", "setting": "[2]", "value": 100, "unit": "%"}, {"measurement": "Pre-emergence action against Stellaria media (STEME)", "setting": "Stellaria media (STEME) [4]", "value": 100, "unit": "%"}]}
{"smiles": "Cc1ccc(Cc2ccc(C)nc2Oc2ncc(F)cn2)cc1", "note": "[Example I-438]", "values": [{"measurement": "Post-emergence action against Amaranthus retroflexus (AMARE)", "setting": "[1]", "value": 90, "unit": "%"}, {"measurement": "Pre-emergence action against Abutilon theophrasti (ABUTH)", "setting": "[5]", "value": 90, "unit": "%"}, {"measurement": "Post-emergence action against Stellaria media (STEME)", "setting": "Stellaria media (STEME) [6]", "value": 90, "unit": "%"}, {"measurement": "Pre-emergence action against Matricaria inodora (MATIN)", "setting": "[3]", "value": 100, "unit": "%"}, {"measurement": "Pre-emergence action against Stellaria media (STEME)", "setting": "Stellaria media (STEME) [4]", "value": 100, "unit": "%"}]}
{"smiles": "Cc1ccc(Cc2ccc(C)nc2Oc2ncccn2)cc1", "note": "[Example I-449]", "values": [{"measurement": "Pre-emergence action against Poa annua (POAAN)", "setting": "Poa annua (POAAN)", "value": 90, "unit": "%"}, {"measurement": "Pre-emergence action against Stellaria media (STEME)", "setting": "Stellaria media (STEME) [4]", "value": 100, "unit": "%"}]}
{"smiles": "COc1cc(Cc2ccc(C)nc2Oc2ncc(C(F)(F)F)cn2)ccc1F", "note": "[Example I-465]", "values": [{"measurement": "Post-emergence action against Amaranthus retroflexus (AMARE)", "setting": "[1]", "value": 90, "unit": "%"}, {"measurement": "Pre-emergence action against Lolium rigidum (LOLRI)", "setting": "Lolium rigidum (LOLRI)", "value": 90, "unit": "%"}, {"measurement": "Pre-emergence action against Setaria viridis (SETVI)", "setting": "Setaria viridis (SETVI)", "value": 90, "unit": "%"}, {"measurement": "Pre-emergence action against Amaranthus retroflexus (AMARE)", "setting": "[2]", "value": 100, "unit": "%"}, {"measurement": "Pre-emergence action against Poa annua (POAAN)", "setting": "Poa annua (POAAN)", "value": 100, "unit": "%"}, {"measurement": "Pre-emergence action against Stellaria media (STEME)", "setting": "Stellaria media (STEME) [4]", "value": 90, "unit": "%"}]}
{"smiles": "COc1cc(Oc2ccc(C)nc2Oc2ncc(Cl)cn2)ccc1F", "note": "[Example I-509]", "values": [{"measurement": "Post-emergence action against Amaranthus retroflexus (AMARE)", "setting": "[1]", "value": 100, "unit": "%"}, {"measurement": "Pre-emergence action against Lolium rigidum (LOLRI)", "setting": "Lolium rigidum (LOLRI)", "value": 90, "unit": "%"}, {"measurement": "Pre-emergence action against Setaria viridis (SETVI)", "setting": "Setaria viridis (SETVI)", "value": 90, "unit": "%"}, {"measurement": "Pre-emergence action against Abutilon theophrasti (ABUTH)", "setting": "[5]", "value": 100, "unit": "%"}, {"measurement": "Pre-emergence action against Amaranthus retroflexus (AMARE)", "setting": "[2]", "value": 100, "unit": "%"}, {"measurement": "Pre-emergence action against Poa annua (POAAN)", "setting": "Poa annua (POAAN)", "value": 100, "unit": "%"}, {"measurement": "Pre-emergence action against Matricaria inodora (MATIN)", "setting": "[3]", "value": 100, "unit": "%"}, {"measurement": "Pre-emergence action against Stellaria media (STEME)", "setting": "Stellaria media (STEME) [4]", "value": 100, "unit": "%"}]}
{"smiles": "COc1cc(Oc2ccc(C)nc2Oc2ncccn2)ccc1F", "note": "[Example I-531]", "values": [{"measurement": "Pre-emergence action against Setaria viridis (SETVI)", "setting": "Setaria viridis (SETVI)", "value": 100, "unit": "%"}, {"measurement": "Pre-emergence action against Echinochloa crus-galli (ECHCG)", "setting": "[7]", "value": 90, "unit": "%"}, {"measurement": "Pre-emergence action against Abutilon theophrasti (ABUTH)", "setting": "[5]", "value": 100, "unit": "%"}, {"measurement": "Pre-emergence action against Amaranthus retroflexus (AMARE)", "setting": "[2]", "value": 100, "unit": "%"}, {"measurement": "Pre-emergence action against Poa annua (POAAN)", "setting": "Poa annua (POAAN)", "value": 100, "unit": "%"}, {"measurement": "Pre-emergence action against Matricaria inodora (MATIN)", "setting": "[3]", "value": 100, "unit": "%"}, {"measurement": "Pre-emergence action against Stellaria media (STEME)", "setting": "Stellaria media (STEME) [4]", "value": 100, "unit": "%"}]}
{"smiles": "Cc1ccc(Oc2ccc(Cl)cc2)c(Oc2ncc(C(F)(F)F)cn2)n1", "note": "[Example I-534]", "values": [{"measurement": "Pre-emergence action against Lolium rigidum (LOLRI)", "setting": "Lolium rigidum (LOLRI)", "value": 100, "unit": "%"}, {"measurement": "Pre-emergence action against Setaria viridis (SETVI)", "setting": "Setaria viridis (SETVI)", "value": 90, "unit": "%"}, {"measurement": "Pre-emergence action against Amaranthus retroflexus (AMARE)", "setting": "[2]", "value": 90, "unit": "%"}, {"measurement": "Pre-emergence action against Matricaria inodora (MATIN)", "setting": "[3]", "value": 90, "unit": "%"}, {"measurement": "Pre-emergence action against Stellaria media (STEME)", "setting": "Stellaria media (STEME) [4]", "value": 100, "unit": "%"}]}
